The text below walks through data of patent US20240140980A1, “HETEROCYCLIC INHIBITORS OF CD73 FOR TREATMENT OF DISEASE” (Teon Therapeutics, Inc., priority 2022, published 2024).

The target in experiment [1] is T1, CD73 (Homo sapiens (Human), UniProt P21589). Kind of experiment: Cellular CD73 Assay (primary human CD3+ T-cells with AMP). The settings on record: primary human peripheral blood CD3+ T-cells, 40 μM AMP, 3 days; readout (cell division or IL-2/IFN-γ) not specified for the column. It counts as cell-based. On the procedure: Primary human peripheral blood CD3+ T-cells obtained from AllCells were thawed and cultured for 24 h in a complete growth medium (Stemline T-cell expansion medium, Sigma #S1694) supplemented with 1 mM L-glutamine, 50 IU/mL of IL-2 and 25 μL/mL of Dynabeads™ Human T-Activator CD3/CD28 (Thermo-Fisher #11161D) at a density of 10^6 cells/mL. Then, cells were labeled with 1.25 μM Cell Trace Violet (Thermo-Fisher #C34557) according to the manufacturer's instructions. Labeled cells were resuspended in a warm complete growth medium and plated onto U-bottom 96-well plates at 25,000 cells/90 μL/well. Next, 500× serial compound dilutions were prepared in DMSO in a 8-point 3-fold titration and then diluted 1:25 into a complete growth medium, generating 20× compound dilutions. Then, 5 μL of 20× compound dilutions was added to the cells and incubated for 60 min at 37° C. After this, 5 μL of 20×AMP was added to a final concentration of 40 μM. Treated cells were cultured for 3 days at 37° C., 5% CO2. Thereafter, cells were gently pelleted by centrifugation, and supernatants were collected and frozen at −80° C. for subsequent cytokine analysis. Cell pellets were resuspended in 100 μL of PBS/2% FBS and gently pipetted up and down to produce a single cell suspension. Then, 3 μL of 7-AAD (BD Biosciences #559925) was added to each well and plates were incubated on ice for 5 min. Cells were then washed and resuspended in 150 μL of PBS/2% FBS. Divided and non-divided live cells were quantified by Attune NxT flow cytometer. Cell Trace Violet-labeled cells cultured without a T-cell activator were used as the nondividing control.
For IL-2 and IFN-γ cytokine analysis, supernatants were thawed on ice, diluted 1:10 in the buffer. The concentration of cytokines was determined using Meso Scale Discovery according to the manufacturer's instructions (Meso Scale Discovery). The EC50 values were determined using a four-parameter nonlinear regression curve fit (GraphPad Prism Version 9.2, GraphPad Software Inc., San Diego, CA).

The target in experiment [2] is T1, CD73. Put plainly: Biochemical CD73 Assay (Malachite Green free phosphate detection). The settings on record: recombinant human CD73 2 nM, AMP 40 μM, 45 min at 37° C. The protocol:
Activity of recombinant CD73 was measured by quantification of free phosphate using the Malachite Green detection system (R&D Systems #DY996). Test compounds were solubilized in DMSO and dispensed into 384-well polystyrene plates in a 8-point 3× titration in duplicates. Then, 10 μL of 4 nM human CD73 enzyme (Novoprotein #C446) in phosphate-free assay buffer (10 mM HEPES, pH 7.4, 125 mM NaCl, 1 mM KCl, 10 mM glucose, 2 mM MgCl2) was added to the plates. The compound and enzyme were incubated for 15 min at RT. Then, 10 μL of 80 μM AMP (Sigma Aldrich #A1752) in the assay buffer was added and the reaction mixture was incubated for 45 min at 37° C. The final concentrations of CD73 and AMP in the reaction were 2 nM and 40 μM, respectively. The reaction was stopped by adding 5 μL of Malachite Green reagent A and incubating for 10 min at RT, followed by addition of 5 μL of Malachite Green reagent B and incubation for 20 min at RT. Absorbance was then read at 620 nm with the Flexstation spectrophotometer (Molecular Devices). The IC50 values were determined using a four-parameter nonlinear regression curve fit.

The structures appear in SMILES notation.

T1 sequence (P21589 27-574): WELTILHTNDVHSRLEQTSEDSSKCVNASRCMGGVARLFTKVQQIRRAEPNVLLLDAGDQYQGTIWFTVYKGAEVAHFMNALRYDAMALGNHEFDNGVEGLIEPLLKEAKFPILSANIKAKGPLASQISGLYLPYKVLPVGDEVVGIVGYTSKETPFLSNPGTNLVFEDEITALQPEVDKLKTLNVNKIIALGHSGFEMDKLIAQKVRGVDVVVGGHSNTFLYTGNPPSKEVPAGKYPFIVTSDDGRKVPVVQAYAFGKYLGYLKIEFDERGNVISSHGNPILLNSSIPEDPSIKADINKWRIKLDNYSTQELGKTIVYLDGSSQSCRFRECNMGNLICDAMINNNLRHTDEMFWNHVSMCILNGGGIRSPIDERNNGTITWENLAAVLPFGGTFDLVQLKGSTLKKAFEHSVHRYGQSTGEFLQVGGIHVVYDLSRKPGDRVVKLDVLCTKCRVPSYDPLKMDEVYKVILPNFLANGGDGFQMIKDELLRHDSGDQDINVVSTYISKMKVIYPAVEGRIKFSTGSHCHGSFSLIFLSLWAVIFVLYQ

On to `COC[C@@](OC[C@H]1O[C@@H](n2ncc3c(NC4CCCC4)nc(Cl)nc32)[C@H](O)[C@@H]1O)(C(=O)N=S(C)(=O)NC(=O)C(C)C)P(=O)(O)O` (single isomer, unassigned) [Example 15], for which, in experiment [1], the EC50 (in general, the concentration that produces a half-maximal response) amounted to 7780 pM. In addition, in experiment [2], the IC50 (usually the concentration needed to halve the response being measured) was determined as 6300 pM.
As for `COC[C@@](OC[C@H]1O[C@@H](n2ncc3c(NC4CCCC4)nc(Cl)nc32)[C@H](O)[C@@H]1O)(C(=O)N=S(C)(=O)NC(=O)C(C)C)P(=O)(O)O` (single isomer, unassigned) [Example 16], the EC50 in experiment [1] turned out to be 1340 pM. In addition, in experiment [2], the IC50 worked out at 780 pM.
The matching figures for `COC[C@@](OC[C@H]1O[C@@H](n2ncc3c(NC4CCCC4)nc(Cl)nc32)[C@H](O)[C@@H]1O)(C(=O)N=[S@](C)(N)=O)P(=O)(O)O` [Example 1, ((2S)-1-((Amino(methyl)(oxo)-λ^6-sulfaneylidene)amino)-2-(((2R,3S,4R,5R)-5-(6-chloro-4-(cyclopentylamino)-1H-pyrazolo[3,4-d]pyrimidin-1-yl)-3,4-dihydroxytetrahydrofuran-2-yl)methoxy)-3-methoxy-1-oxopropan-2-yl)phosphonic Acid]: 510 pM and 940 pM.
The matching figures for `COC[C@@](OC[C@H]1O[C@@H](n2ncc3c(NC4CCCC4)nc(Cl)nc32)[C@H](O)[C@@H]1O)(C(=O)N=[S@@](C)(N)=O)P(=O)(O)O` [Example 3, ((2S)-1-((Amino(methyl)(oxo)-λ^6-sulfaneylidene)amino)-2-(((2R,3S,4R,5R)-5-(6-chloro-4-(cyclopentylamino)-1H-pyrazolo[3,4-d]pyrimidin-1-yl)-3,4-dihydroxytetrahydrofuran-2-yl)methoxy)-3-methoxy-1-oxopropan-2-yl)phosphonic Acid]: 1500 pM and 1000 pM.
The matching figures for `CNC(=O)N[S@](C)(=O)=NC(=O)[C@@](COC)(OC[C@H]1O[C@@H](n2ncc3c(NC4CCCC4)nc(Cl)nc32)[C@H](O)[C@@H]1O)P(=O)(O)O` [Example 9, ((S)-2-(((2R,3S,4R,5R)-5-(6-Chloro-4-(cyclopentylamino)-1H-pyrazolo[3,4-d]pyrimidin-1-yl)-3,4-dihydroxytetrahydrofuran-2-yl)methoxy)-3-methoxy-1-(((R)-methyl(3-methylureido)(oxo)-λ^6-sulfaneylidene)amino)-1-oxopropan-2-yl)phosphonic Acid]: 1570 pM and 900 pM.
On to `CNC(=O)N[S@@](C)(=O)=NC(=O)[C@@](COC)(OC[C@H]1O[C@@H](n2ncc3c(NC4CCCC4)nc(Cl)nc32)[C@H](O)[C@@H]1O)P(=O)(O)O` [Example 10, ((S)-2-(((2R,3S,4R,5R)-5-(6-Chloro-4-(cyclopentylamino)-1H-pyrazolo[3,4-d]pyrimidin-1-yl)-3,4-dihydroxytetrahydrofuran-2-yl)methoxy)-3-methoxy-1-(((S)-methyl(3-methylureido)(oxo)-λ^6-sulfaneylidene)amino)-1-oxopropan-2-yl)phosphonic Acid], for which the EC50 in experiment [1] is 720 pM. Further, in experiment [2], the IC50 was 310 pM.
The matching figures for `COC[C@@](OC[C@H]1O[C@@H](n2ncc3c(NC4CCCC4)nc(Cl)nc32)[C@H](O)[C@@H]1O)(C(=O)N=[S@@](C)(=O)NC(=O)C1CC1)P(=O)(O)O` [Example 11, ((S)-2-(((2R,3S,4R,5R)-5-(6-Chloro-4-(cyclopentylamino)-1H-pyrazolo[3,4-d]pyrimidin-1-yl)-3,4-dihydroxytetrahydrofuran-2-yl)methoxy)-1-(((R)-cyclopropanecarboxamido(methyl)(oxo)-λ^6-sulfaneylidene)amino)-3-methoxy-1-oxopropan-2-yl)phosphonic Acid]: 900 pM and 770 pM.
The matching figures for `COC[C@@](OC[C@H]1O[C@@H](n2ncc3c(NC4CCCC4)nc(Cl)nc32)[C@H](O)[C@@H]1O)(C(=O)N=[S@](C)(=O)NC(=O)C1CC1)P(=O)(O)O` [Example 12, ((S)-2-(((2R,3S,4R,5R)-5-(6-Chloro-4-(cyclopentylamino)-1H-pyrazolo[3,4-d]pyrimidin-1-yl)-3,4-dihydroxytetrahydrofuran-2-yl)methoxy)-1-(((S)-cyclopropanecarboxamido(methyl)(oxo)-λ^6-sulfaneylidene)amino)-3-methoxy-1-oxopropan-2-yl)phosphonic Acid]: 920 pM and 450 pM.
With `CCC(=O)NS(C)(=O)=NC(=O)[C@@](COC)(OC[C@H]1O[C@@H](n2ncc3c(NC4CCCC4)nc(Cl)nc32)[C@H](O)[C@@H]1O)P(=O)(O)O` (stereo partly drawn) [Example 13, ((2S)-2-(((2R,3S,4R,5R)-5-(6-Chloro-4-(cyclopentylamino)-1H-pyrazolo[3,4-d]pyrimidin-1-yl)-3,4-dihydroxytetrahydrofuran-2-yl)methoxy)-3-methoxy-1-((methyl(oxo)(propionamido)-λ^6-sulfaneylidene)amino)-1-oxopropan-2-yl)phosphonic Acid], in experiment [1], the midpoint of the response, the EC50, lay at 680 pM. In addition, the IC50 in experiment [2] amounted to 700 pM.
In experiment [1], `CCC(=O)NS(C)(=O)=NC(=O)[C@@](COC)(OC[C@H]1O[C@@H](n2ncc3c(NC4CCCC4)nc(Cl)nc32)[C@H](O)[C@@H]1O)P(=O)(O)O` (stereo partly drawn) [Example 14, ((2S)-2-(((2R,3S,4R,5R)-5-(6-Chloro-4-(cyclopentylamino)-1H-pyrazolo[3,4-d]pyrimidin-1-yl)-3,4-dihydroxytetrahydrofuran-2-yl)methoxy)-3-methoxy-1-((methyl(oxo)(propionamido)-λ^6-sulfaneylidene)amino)-1-oxopropan-2-yl)phosphonic Acid] had an EC50 of 1150 pM. Further, the IC50 in experiment [2] stood at 740 pM.
Taken in the same sequence, the figures for `COC[C@@](OC[C@H]1O[C@@H](n2ncc3c(NC4CCCC4)nc(Cl)nc32)[C@H](O)[C@@H]1O)(C(=O)N=[S@](C)(=O)NC(C)=O)P(=O)(O)O` [Example 17, ((S)-1-(((S)-Acetamido(methyl)(oxo)-λ^6-sulfaneylidene)amino)-2-(((2R,3S,4R,5R)-5-(6-chloro-4-(cyclopentylamino)-1H-pyrazolo[3,4-d]pyrimidin-1-yl)-3,4-dihydroxytetrahydrofuran-2-yl)methoxy)-3-methoxy-1-oxopropan-2-yl)phosphonic Acid] were 980 pM and 580 pM.
Taken in the same sequence, the figures for `COC[C@@](OC[C@H]1O[C@@H](n2ncc3c(NC4CCCC4)nc(Cl)nc32)[C@H](O)[C@@H]1O)(C(=O)N=[S@](C)(=O)NC(=O)OC)P(=O)(O)O` [Example 18, ((S)-2-(((2R,3S,4R,5R)-5-(6-Chloro-4-(cyclopentylamino)-1H-pyrazolo[3,4-d]pyrimidin-1-yl)-3,4-dihydroxytetrahydrofuran-2-yl)methoxy)-3-methoxy-1-(((S)-((methoxycarbonyl)amino)(methyl)(oxo)-λ^6-sulfaneylidene)amino)-1-oxopropan-2-yl)phosphonic Acid] were 1000 pM and 500 pM.
